Numbers after ± are expanded uncertainties.
Columns and labels:
[1] = Liquid; for viscosity: Moving piston method; for vapor or sublimation pressure: Closed cell (Static) method
[2] = xn = mol fraction of the nth substance listed; settings: Liquid, Moving piston method

CCCCCCCCCCCC [dodecane]
viscosity ([1]; 284.6 K, 670 kPa): 1.75 ± 0.05 mPa·s
viscosity ([1]; 284.6 K, 2190 kPa): 1.78 ± 0.05 mPa·s
viscosity ([1]; 284.7 K, 2710 kPa): 1.79 ± 0.05 mPa·s
viscosity ([1]; 284.7 K, 4240 kPa): 1.82 ± 0.05 mPa·s
viscosity ([1]; 294 K, 8310 kPa): 1.63 ± 0.05 mPa·s
viscosity ([1]; 322.3 K, 4240 kPa): 0.98 ± 0.04 mPa·s
viscosity ([1]; 350.5 K, 690 kPa): 0.66 ± 0.03 mPa·s
viscosity ([1]; 350.5 K, 4250 kPa): 0.68 ± 0.03 mPa·s
viscosity ([1]; 350.5 K, 8310 kPa): 0.72 ± 0.03 mPa·s
viscosity ([1]; 353.1 K, 8320 kPa): 0.69 ± 0.03 mPa·s

O=C=O [carbon dioxide]
vapor or sublimation pressure ([1]; 282.15 K): 4392 ± 54 kPa
vapor or sublimation pressure ([1]; 287.11 K): 4961 ± 54 kPa
vapor or sublimation pressure ([1]; 291.84 K): 5555 ± 55 kPa
vapor or sublimation pressure ([1]; 296.64 K): 6214 ± 56 kPa
vapor or sublimation pressure ([1]; 301.38 K): 6928 ± 57 kPa

CCCCCCCCCCCC [dodecane] + O=C=O
viscosity ([2]; 283.7 K, 4630 kPa, x2 = 0.8): 0.353 ± 0.039 mPa·s
viscosity ([2]; 283.97 K, 4610 kPa, x2 = 0.8): 0.362 ± 0.036 mPa·s
viscosity ([2]; 284.33 K, 3710 kPa, x2 = 0.5999): 0.578 ± 0.036 mPa·s
viscosity ([2]; 284.41 K, 2630 kPa, x2 = 0.401): 0.96 ± 0.037 mPa·s
viscosity ([2]; 284.44 K, 2530 kPa, x2 = 0.401): 0.972 ± 0.038 mPa·s
viscosity ([2]; 284.6 K, 1460 kPa, x2 = 0.2009): 1.227 ± 0.052 mPa·s
viscosity ([2]; 305.43 K, 5410 kPa, x2 = 0.5999): 0.487 ± 0.03 mPa·s
viscosity ([2]; 305.44 K, 5360 kPa, x2 = 0.5999): 0.498 ± 0.03 mPa·s
viscosity ([2]; 305.64 K, 1770 kPa, x2 = 0.2009): 0.865 ± 0.044 mPa·s
viscosity ([2]; 305.65 K, 3610 kPa, x2 = 0.401): 0.667 ± 0.033 mPa·s
viscosity ([2]; 305.69 K, 1730 kPa, x2 = 0.2009): 0.86 ± 0.043 mPa·s
viscosity ([2]; 305.82 K, 6880 kPa, x2 = 0.8): 0.272 ± 0.027 mPa·s
viscosity ([2]; 328.83 K, 10780 kPa, x2 = 0.8): 0.236 ± 0.026 mPa·s
viscosity ([2]; 328.86 K, 7350 kPa, x2 = 0.5999): 0.373 ± 0.028 mPa·s
viscosity ([2]; 328.99 K, 4470 kPa, x2 = 0.401): 0.493 ± 0.029 mPa·s
viscosity ([2]; 329.3 K, 2050 kPa, x2 = 0.2009): 0.585 ± 0.046 mPa·s
viscosity ([2]; 350.19 K, 5510 kPa, x2 = 0.401): 0.397 ± 0.028 mPa·s
viscosity ([2]; 350.49 K, 14270 kPa, x2 = 0.8): 0.208 ± 0.026 mPa·s
viscosity ([2]; 350.95 K, 9320 kPa, x2 = 0.5999): 0.305 ± 0.027 mPa·s
viscosity ([2]; 351.33 K, 2490 kPa, x2 = 0.2009): 0.437 ± 0.031 mPa·s

Source: the NIST ThermoML archive (doi:10.1021/acs.jced.9b00187)
